Read-outs that look alike come from different tables or passages of the source. Starred links: 1 amine or outer side, 2 acyl side, 3 side chain; linkers in the order of their positions; H or OH if unused. Positions of bridges follow the written chain, without caps; N, C: chain ends. Residues, ends and D or L forms follow the SMILES beside them. *: point of attachment. Fluorescein(5-Mal) = O=C1OC2(c3ccc(O)cc3Oc3cc(O)ccc32)c2ccc(N3C(=O)CC(*)C3=O)cc21; X2 = CN(C)c1ccc2c(c1)Oc1cc(N(C)C)ccc1C21OC(=O)c2cc(N3C(=O)CC(*)C3=O)ccc21; X1 = O=C(c1cccc(C[*:2])c1)[*:1]

Data set [1] has as its system U2OS cells.
Procedure: (§1) Cells were seeded for 24 h on ibidi 8 well μ-slides treated with poly-L-lysine to reach ˜90% confluency. Cells were then washed three times with warm PBS followed by incubation for 1 h with warm serum-free medium (DMEM) containing peptides. Thereafter, cells were washed two times with warm PBS. Prior to imaging, cells were washed with an optical culture medium and stained with Hoechst (2 μg/ml). Live cell CLSM images were captured using Confocal Zeiss LSM 710 equipped with 40×NA 1.2 water immersion objective lens using a 1 AU pinhole settings. Different lasers were used for the different tags (Hoechst, TAMRA, FITC), and during analysis, the μ-slide was kept at 37° C. in a humidified chamber.
Data set [2] can be described thus: Solubility in buffer (aq.) medium. It is filed as physicochemical.
Data set [3] deals with U2OS cells. Put plainly: Cell uptake studies by live-cell confocal microscopy. The settings on record: 2 μM.
Procedure: as §1

In the case of `CC[C@H](C)[C@@H]1NC(=O)[C@H](Cc2c[nH]c3ccccc23)NC(=O)[C@H]([C@@H](C)CC)NC(=O)[C@H](CC(C)C)NC(=O)[C@H](CS)NC(=O)c2cccc(c2)CSC[C@@H](C(=O)NCC(=O)N[C@@H](C)C(=O)N[C@@H](CSC2CC(=O)N(c3ccc4c(c3)C(=O)OC43c4ccc(O)cc4Oc4cc(O)ccc43)C2=O)C(N)=O)NC(=O)[C@H](CC(C)C)NC(=O)[C@H]([C@@H](C)CC)NC(=O)[C@H](Cc2ccc(O)cc2)NC(=O)[C@@H]2CCCN2C(=O)[C@H](CC(N)=O)NC(=O)[C@H](CCCCN)NC(=O)[C@H](CO)NC(=O)[C@H](CO)NC(=O)CNC1=O` (stereo partly drawn) [cyclic peptide 29] (CLIWIGSSKNPYILCGAC(Fluorescein(5-Mal))-NH2; linker N-15 via X1), the “cell-permeability / delivery to live cells” value with U2OS cells [1] is on record as “did not observe an efficient delivery”.

With `CC[C@H](C)[C@@H]1NC(=O)[C@H](Cc2c[nH]c3ccccc23)NC(=O)[C@H]([C@@H](C)CC)NC(=O)[C@H](CC(C)C)NC(=O)[C@H](CS)NC(=O)c2cccc(c2)CSC[C@@H](C(=O)NCC(N)=O)NC(=O)[C@H](CC(C)C)NC(=O)[C@H]([C@@H](C)CC)NC(=O)[C@H](Cc2ccc(O)cc2)NC(=O)[C@@H]2CCCN2C(=O)[C@H](CC(N)=O)NC(=O)[C@H](CCCCN)NC(=O)[C@H](CO)NC(=O)[C@H](CO)NC(=O)CNC1=O` [cyclic peptide 2] (CLIWIGSSKNPYILCG-NH2; linker N-15 via X1), the “aqueous solubility” value in data set [2] is on record as “poor aqueous solubility”.

Take `CC[C@H](C)[C@@H]1NC(=O)[C@H](Cc2c[nH]c3ccccc23)NC(=O)[C@H]([C@@H](C)CC)NC(=O)[C@H](CC(C)C)NC(=O)[C@H](CS)NC(=O)c2cccc(c2)CSC[C@@H](C(=O)NCC(=O)N[C@@H](C)C(=O)N[C@@H](CSC2CC(=O)N(c3ccc4c(c3)C(=O)OC43c4ccc(N(C)C)cc4Oc4cc(N(C)C)ccc43)C2=O)C(N)=O)NC(=O)[C@H](CC(C)C)NC(=O)[C@H]([C@@H](C)CC)NC(=O)[C@H](Cc2ccc(O)cc2)NC(=O)[C@@H]2CCCN2C(=O)[C@H](CC(N)=O)NC(=O)[C@H](CCCCN)NC(=O)[C@H](CO)NC(=O)[C@H](CO)NC(=O)CNC1=O` (stereo partly drawn) [cyclic peptide 26] (CLIWIGSSKNPYILCGAC(X2)-NH2; linker N-15 via X1): the “cell-permeability / delivery to live cells” value in the data set on U2OS cells [3] was “efficient cell-permeability”.

The record behind these values is patent US20250099534A1, “UBIQUITIN HIGH AFFINITY CYCLIC PEPTIDES AND METHODS OF USE THEREOF” (TECHNION RESEARCH & DEVELOPMENT FOUNDATION LIMITED, priority 2022, published 2025).
